# In article PMC5578599, “Programmed cell death in Acanthamoeba castellanii Neff induced by several molecules present in olive leaf extracts” (PLoS ONE, 2017):
# “Also recorded” adds a separate entry of the source. Like-named read-outs stand apart in the source and are kept apart here.
# Tests used:
# CLC-51, genotype T1 = assay: Alamar Blue assay against the trophozoite stage, clinical isolate CLC-51; format: cell-based; settings: Acanthamoeba, trophozoites, IC50/96 h
# Protocol: (§1) The strains used in this study included a type strain: Acanthamoeba castellanii Neff (ATCC 30010), and two clinical isolates, CLC-16, genotype T3; and CLC-51, genotype T1, which were isolated in a previous study. The strains were axenically grown in PYG medium (0.75% (w/v) proteose peptone, 0.75% (w/v) yeast extract and 1.5% (w/v) glucose) containing 40 μg/ml of gentamicin (Biochrom AG, Cultek, Granollers, Barcelona, Spain).
# (§2) The anti-Acanthamoeba activities of the tested molecules were determined using the Alamar Blue® assay as previously described. Briefly, Acanthamoeba strains were seeded in duplicate on a 96-well microtiter plates with 50μl from a stock solution of 10^4 cells/ml. Amoebae were left to adhere for 15 min process which was checked using a Leika DMIL inverted microscope (Leika, Wetzlar, Germany). After that, 50 μl of serial dilutions of the molecules to be evaluated were added to the wells (In all tests, 1% DMSO was used to dissolve the highest dose of the compounds without inducing any effects on the parasites). Finally the Alamar Blue Reagent® (Life Technologies, Madrid, Spain) was placed into each well at an amount equal to 10% of the final volume. Test plates containing Alamar Blue were then incubated for 120 h at 28°C with a slight agitation.
# (§3) Subsequently the plates were analyzed, during an interval of time between 72 and 144 h, on an EnSpire® Multimode Plate Reader (Perkin Elmer, Madrid, Spain) using a test wavelength of 570 nm and a reference wavelength of 630 nm. Percentages of growth inhibition, 50% and 90% inhibitory concentrations (IC50 and IC90) were calculated by linear regression analysis with 95% confidence limits. All experiments were performed three times, and the mean values were also calculated.
# [1] = system: Acanthamoeba castellanii Neff (ATCC 30010); assay: Alamar Blue assay against the trophozoite stage, A. castellanii Neff; format: cell-based; settings: IC50/96 h; for IC50: Acanthamoeba castellanii, ATCC30010, trophozoites; for IC50 A. Neff: trophozoites
# CLC-16, genotype T3 = assay: Alamar Blue assay against the trophozoite stage, clinical isolate CLC-16; format: cell-based; settings: Acanthamoeba, trophozoites, IC50/96 h
# Protocol: as §1, §2, §3
# macrophages J774.A1 = assay: LDH release cytotoxicity test; format: cell-based, murine; settings: for Cytotoxicity level at the IC50 against Acanthamoeba / Cytotoxicity level at the IC90 against Acanthamoeba: J774A.1 murine macrophages, 24 hours, LDH release; for Cytotoxicity level at the IC50 against Acanthamoeba: compound at its IC50; for Cytotoxicity level at the IC90 against Acanthamoeba: compound at its IC90
# Protocol: A commercial kit was used for the evaluation of the induced cytotoxic effects of tested compounds based on the measurement of lactate dehydrogenase (LDH) quantity released to the media (LDH Cytotoxicity Detection Kit, Roche Applied Science, Madrid, Spain), following the manufacturer's instructions. Briefly, the macrophages J774.A1 (ATCC # TIB-67) were incubated with different concentrations of the tested compounds for 24 hours in duplicate. After incubation, supernatants were obtained and LDH levels were determined following manufacturer′s instructions. To determine the cytotoxicity percentages, the average absorbance values of the duplicates were calculated and compared with negative and positive controls. Cytotoxic levels were determined as previously described.
# [2] = system: Acanthamoeba castellanii Neff (ATCC 30010); assay: Alamar Blue assay against the trophozoite stage, A. castellanii Neff; format: cell-based; settings: for IC90: ATCC30010, trophozoites, Alamar Blue
# Protocol: as §1, §2, §3
# A. Neff = assay: JC-1 mitochondrial membrane potential; format: cell-based, Acanthamoeba castellanii; settings: IC90, 24 hours
# Protocol: The ΔΨm was measured using JC-1 Mitochondrial Membrane Potential Assay Kit (Cayman Chemical, Vitro, Madrid, Spain). This lipophilic cationic probe accumulates in the mitochondrial matrix according to the membrane potential. In healthy cells with a high ΔΨm, JC-1 spontaneously forms complexes known as J-aggregates, showing intense red fluorescence (emission at 595 nm). […] In brief, amoebae, after 24 hours of incubation with different concentrations of the tested compounds, were harvested and washed with buffer. The cells were then incubated at 26°C for 30 minutes with JC-1 dye. Cells were then analyzed by fluorescence measurement in black plates through spectrofluorometer using 490 nm as excitation wavelength. Data presented here are representative of three experiments. The ratio of the reading at 595 nm to the reading at 535 nm was considered as the relative ΔΨm value.
# A. Neff membrane = assay: SYTOX Green plasma membrane permeability; format: cell-based, Acanthamoeba castellanii; settings: IC90, SYTOX Green, relative to Triton X-100 positive control
# Protocol: The SYTOX® Green assay was performed to detect membrane permeability alterations on the parasites. Briefly, 10^5 amoebae/ml were incubated with the SYTOX® Green at a final concentration of 1 μM (Molecular Probes®) for 30 min in the dark at 26°C. Subsequently, parasites were disposed to black plates and the tested compounds were added at the IC90. The increase in fluorescence due to binding of the fluorescent marker to the amoebic DNA was measured using an EnSpire® Multimode Plate Reader (Perkin Elmer, Madrid, Spain) with excitation wavelength of 504 nm and emission wavelength at 523 nm, and expressed as percentage relative to full permeabilized cells achieved by the addition of 0.1% Triton X-100 [17–19].
# [3] = system: Acanthamoeba castellanii Neff; assay: Annexin-V/PI image-based cytometry for apoptosis; format: cell-based; settings: treated with IC90, 24 h
# Protocol: Annexin-V/propidium iodide (PI) double staining assay was performed using the Tali® Apoptosis Kit—Annexin V Alexa Fluor® 488 & Propidium Iodide according to the manufacturer's instructions (Life Technologies, Madrid, Spain). […] After that, cells were centrifuged and resuspended in ABB containing 1 μl of PI and incubated for 3 min at room temperature. Finally, 25 μl of the stained cells were loaded into a Tali® Cellular Analysis Slide and were analysed in the Tali® Image-Based Cytometer. Data were collected using the Tali® data acquisition and analysis software (Life Technologies, Madrid, Spain).
smiles,measurement,setting,value
O=c1cc(-c2ccc(O)cc2)oc2cc(O)cc(O)c12 [Apigenine],IC50,"CLC-51, genotype T1",20.2 ± 0.73 µg/mL
same,IC50,[1],6.59 ± 0.39 µg/mL
same,IC50,"CLC-16, genotype T3",57 ± 2.68 µg/mL
same,Cytotoxicity level at the IC50 against Acanthamoeba,macrophages J774.A1,high cytotoxicity (abve 40% correspond to high cytotoxicity)
same,Cytotoxicity level at the IC90 against Acanthamoeba,macrophages J774.A1,high cytotoxicity (abve 40% correspond to high cytotoxicity)
O=C(O)/C=C/c1ccc(O)c(O)c1 [Caffeic acid],IC50,[1],> 100 µg/mL
O.Oc1cc(O)c2c(c1)O[C@H](c1ccc(O)c(O)c1)[C@@H](O)C2 [Catechin hydrate],IC50 A. Neff,[1],>100 µg/mL
O=C(/C=C/c1ccc(O)c(O)c1)O[C@@H]1C[C@](O)(C(=O)O)C[C@@H](O)[C@H]1O [Chlorogenic acid],IC50,[1],> 100 µg/mL
O=c1oc2c(O)c(O)cc3c(=O)oc4c(O)c(O)cc1c4c23 [Ellagic acid],IC50,[1],67.4 ± 3.59 µg/mL
COc1cc(/C=C/C(=O)O)ccc1O [Ferulic acid],IC50 A. Neff,[1],62.03 ± 1.78 µg/mL
O=C(O)c1cc(O)c(O)c(O)c1 [Gallic acid],IC50,[1],> 100 µg/mL
OCCc1ccc(O)c(O)c1 [Hydroxytyrosol],IC50,[1],> 100 µg/mL
O=c1cc(-c2ccc(O)c(O)c2)oc2cc(O[C@@H]3O[C@H](CO)[C@@H](O)[C@H](O)[C@H]3O)cc(O)c12 [Luteolin 7-o-glucoside],IC50 A. Neff,[1],61.98 ± 3.93 µg/mL
O=c1cc(-c2ccc(O)c(O)c2)oc2cc(O)cc(O)c12 [Luteolin],IC50,"CLC-51, genotype T1",26.6 ± 1.75 µg/mL
same,IC50,[1],28 ± 1.73 µg/mL
same,IC50,"CLC-16, genotype T3",83.1 ± 0.89 µg/mL
CC1(C)CC[C@]2(C(=O)O)CC[C@]3(C)C(=CC[C@@H]4[C@@]5(C)C[C@@H](O)[C@H](O)C(C)(C)[C@@H]5CC[C@]43C)[C@@H]2C1 [Maslinic acid],IC50,"[2]; ATCC30010, read-out: IC50 A. Neff",30.9 ± 1.33 µg/mL
CC1(C)CC[C@]2(C(=O)O)CC[C@]3(C)C(=CC[C@@H]4[C@@]5(C)CC[C@H](O)C(C)(C)[C@@H]5CC[C@]43C)[C@@H]2C1 [Oleanolic acid],IC50,[1],43.7 ± 3.34 µg/mL
C/C=C1/[C@H](O[C@@H]2O[C@H](CO)[C@@H](O)[C@H](O)[C@H]2O)OC=C(C(=O)OC)[C@H]1CC(=O)OCCc1ccc(O)c(O)c1 [Oleuropein],IC50,[1],57.5 ± 4.32 µg/mL
O=C(O)c1ccc(O)c(O)c1 [Protochatechuic acid],IC50 A. Neff,[1],36.05 ± 1.31 µg/mL
O=c1c(O)c(-c2ccc(O)c(O)c2)oc2cc(O)cc(O)c12 [Quercetin hydrate],IC50,[1],> 100 µg/mL
C[C@@H]1O[C@@H](OC[C@H]2O[C@@H](Oc3c(-c4ccc(O)c(O)c4)oc4cc(O)cc(O)c4c3=O)[C@H](O)[C@@H](O)[C@@H]2O)[C@H](O)[C@H](O)[C@H]1O [Rutin],IC50,[1],61.4 ± 5.44 µg/mL
COc1cc(C(=O)O)cc(OC)c1O [Syringic acid],Decrease of the membrane potential (ΔΨm),A. Neff,68%
same,IC50,"CLC-51, genotype T1",63.07 ± 0.56 µg/mL
same,IC50,[1],22.9 ± 2.14 µg/mL
same,IC50,"CLC-16, genotype T3",51.5 ± 2.41 µg/mL
same,Cytotoxicity (in words),"macrophages J774.A1; J774A.1 macrophages, Fig 2",lowest toxic levels
same,Cytotoxicity level at the IC50 against Acanthamoeba,macrophages J774.A1,low cytotoxicity (Values between 10 and 25% correspond to low cytotoxicity)
same,Cytotoxicity level at the IC90 against Acanthamoeba,macrophages J774.A1,low cytotoxicity (Values between 10 and 25% correspond to low cytotoxicity)
same,IC90,[2],119 µg/mL
same,Plasma membrane permeabilization,A. Neff membrane,induced the higher permeabilization; also recorded: caused plasma membrane permeability
OCCc1ccc(O)cc1 [Tyrosol],IC50,[1],63.77 ± 0.34 µg/mL
C[C@H]1[C@H](C)CC[C@]2(C(=O)O)CC[C@]3(C)C(=CC[C@@H]4[C@@]5(C)CC[C@H](O)C(C)(C)[C@@H]5CC[C@]43C)[C@H]12 [Ursolic acid],Percentage of apoptotic cells,[3],26%
same,Decrease of the membrane potential (ΔΨm),A. Neff,80%
same,IC50,"CLC-51, genotype T1",28 ± 2.26 µg/mL
same,IC50 A. Neff,[1],23.94 ± 1.14 µg/mL
same,IC50,"CLC-16, genotype T3",55 ± 1.21 µg/mL
same,IC90,[2],119 µg/mL
COc1cc(C(=O)O)ccc1O [Vanillic acid],Decrease of the membrane potential (ΔΨm),A. Neff,68%
same,IC50,"CLC-51, genotype T1",61.7 ± 4.43 µg/mL
same,IC50,[1],34.7 ± 1.32 µg/mL
same,IC50,"CLC-16, genotype T3",65.4 ± 0.89 µg/mL
same,Cytotoxicity level at the IC50 against Acanthamoeba,macrophages J774.A1,low cytotoxicity (Values between 10 and 25% correspond to low cytotoxicity)
same,IC90,[2],133 µg/mL
same,Plasma membrane permeabilization,A. Neff membrane,induced the higher permeabilization; also recorded: caused plasma membrane permeability
COc1cc(C=O)ccc1O [Vanillin],Decrease of the membrane potential (ΔΨm),A. Neff,36%
same,IC50,"CLC-51, genotype T1",37.2 ± 2.85 µg/mL
same,IC50,[1],25.6 ± 2.1 µg/mL
same,IC50,"CLC-16, genotype T3",58.1 ± 3.77 µg/mL
same,Cytotoxicity level at the IC50 against Acanthamoeba,macrophages J774.A1,low cytotoxicity (Values between 10 and 25% correspond to low cytotoxicity)
same,IC90,[2],123 µg/mL
same,Plasma membrane permeabilization,A. Neff membrane,caused plasma membrane permeability
C[C@@H]1O[C@@H](O[C@@H]2[C@@H](O)[C@H](OCCc3ccc(O)c(O)c3)O[C@H](CO)[C@H]2OC(=O)/C=C/c2ccc(O)c(O)c2)[C@H](O)[C@H](O)[C@H]1O [Verbascoside],IC50,[1],> 100 µg/mL
O=C(O)/C=C/c1cccc(O)c1 [m-coumaric acid],IC50 A. Neff,[1],65.75 ± 3.97 µg/mL
O=C(O)/C=C/c1ccc(O)cc1 [p-coumaric acid],IC50,[1],72.19 ± 0.19 µg/mL
